Laboratory results published in US20090181932A1, “COMPOSITIONS CONTAINING O-SULFATE AND O-PHOSPHATE CONTAINING ARYL SULFONAMIDE DERIVATIVES USEFUL AS beta-AMYLOID INHIBITORS” (Wyeth, priority 2008, published 2009).
pEC50: −log10 of the molar value. Structures can show the parent of a compound that is named as a salt. Where two headings read alike, the source gives them in different places. Values belong to the compound of their own block, whether it stands above or below them.

Legend:
Assay type in all cases: cell-based
[1] = tested on: Aβ40 generation from APP in CHO cells stably expressing hAPP-REPNL751; test: Aβ-lowering electrochemiluminescent (MSD ECL) assay of conditioned media, Aβ40
Description: (§1) The activity of compounds in lowering the generation of Aβ40 and Aβ42, the most abundant forms of beta amyloid, from APP (amyloid precursor protein) was measured in an electrochemiluminescent (ECL) assay of conditioned media from chinese hamster ovary (CHO) cells stably expressing the human amyloid precursor protein (APP) reporter construct, hAPP-REPNL751 [Sughir, R. et al.; J. Biolog. Chem. (1992) 267: 25602-25608]. Aβ peptides were secreted at high levels into cell culture media by cells carrying the human APP transgene; compounds were tested for their capacity to modulate this production. The Aβ peptide in the conditioned medium was quantitated by a sandwich immunoassay with the Meso Scale Discovery® (MSD®) ECL detection system. Cell metabolism was measured using MTS salt kit (containing a tetrazolium compound 3-(4,5-dimethylthiazol-2-yl)-5-(3-carboxymethoxyphenyl)-2-(4-sulfophenyl)-2H-tetrazolium, inner salt; MTS(a) which measures the mitochondrial activity of cells by the bioreduction of Owen's reagent). This assay consists of the following protocol: • 1. Aβ-Lowering Assay. • a. hAPP-REPNL751 CHO cells were seeded into 96 well plates and incubated until about 60-70% confluence. • b. Medium was removed, cells were washed, and fresh serum-free medium (Ultraculture) was put on cells. • c. Compounds were diluted and then added to the cell medium. • d. Cells were incubated, with compounds, for indicated times. • e. Streptavidin coated Meso Scale Discover (MSD) plates (MSD standard Multi-Array™ 96 plate, cat. #P11SA-1) were washed 3× with TTBS (Tris-buffered saline, the Tween® 20 reagent). • f. 20 μL conditioned medium were removed from the cells, and added to the TTBS prewashed MSD® plates. • g. Standard curve dilutions of synthetic Aβ40 and Aβ42 were prepared and added to the MSD® plates. • h. A reagent mix was prepared in 1% MSD® Blocker A (appropriate concentration of biotinylated 6E10 antibody, detection antibodies to Aβ40, Aβ42, and MSD ruthinylated tag antibody). • i. 20 μL reagent mix was distributed to sample plate. • j. Plates were incubated with shaking overnight at 4° C. • k. Plates were washed 3× with TTBS. • l. 150 μL read buffer was added per well (MSD Read Buffer T, cat#R92TC-2, made 1× with distilled water). • m. Plates were read in MSD plate reader within 2 hours. • 2. MTS Assay: • a. Cells were seeded into 96 well plates and incubated until about 60-70% confluence. • b. Medium was removed, cells were washed, and fresh serum-free medium (Ultraculture) was put on cells. • c. Compounds were diluted and then added to the cell medium. • d. Cells were incubated, with compounds, for indicated times. • e. Using a robot, conditioned medium was removed from the cells, and transferred to a TTBS prewashed MSD plate. • f. Cells were washed 2× in phosphate buffered saline (PBS) and an MTS solution was plated onto the cells. After 1 hour, they were read on a plate reader at 560 nm to determine metabolic activity. • 3. Analysis of Results. • Assays were accepted or rejected based upon specific performance criteria, including regression coefficient of standard curve, adequate signal to noise ratio, sample signals lying within the range of the standard curve, etc. The specific parameters were established for each tissue type prior to performing an assay, and were included in the full analytical procedure. • Plate data from both assays (MTS and MSD ELISA) were transferred into a Microsoft Excel® spreadsheet to determine the toxicity, and inhibition caused by the compounds. Standard curves of Aβ were generated using LSW toolbar Hill slope model 42, with 1/y weighting (general sigmoidal curve with Hill slope, a to d; y=(a−d)/(1+(x/c)̂b)+d). […]

[2] = tested on: Aβ42 generation from APP in CHO cells stably expressing hAPP-REPNL751; test: Aβ-lowering electrochemiluminescent (MSD ECL) assay of conditioned media, Aβ42
Description: as §1

[3] = tested on: S3 (γ-secretase like) processing of Notch (Mouse Notch1 with deleted extracellular domain); test: Whole cell functional Notch assay (HES1-SEAP reporter, P8H6 CHO-K1 cells); details: Notch assay reference compounds, read-out: EC50 (Notch induced SEAP levels)
From the text: The activity of compounds in cleaving Notch can be measured in a whole cell functional Notch assay. This is an assay to determine the effects of compounds on the S3 (γ-secretase like) processing of Notch. […] SEAP transactivation is then detected by luminescent assay. The assay consists of the following protocol: • 1. Materials and Methods: • (a) Materials: The P8H6 inducible stable cell line was derived from T-REx™ CHO-K1, stably expressing Tet repressor, Notch (pZX1) and HES1-SEAP (pZX2) reporter constructs. A Wallace 1450® Victor Luminescence Counter is used to measure luminescent signal. […] For vehicle samples, the same volume of 0.2% DMSO/25 mM HEPES buffer was added. • Cells were incubated at 37° C., 5% CO2 for 48 hours. • SEAP levels in the conditioned media were assessed using the Clontech GreatEscAPe™ SEAP Chemiluminescence detection kit according to the manufacturer's instruction. […] After cooling, assay buffer was added, and the sample was incubated with the CSPD® substrate. • Luminescence was measured in a Wallace 1450 Victor luminescence counter. • 2. […] EC50 was calculated by […] using sigmoidal inhibition from B0 to nsb model (model 59). […] Inhibition of Notch processing was measured using the stable transfection reporter assay. […]

[4] = electrochemiluminescent assay, hAPP-REPNL751 CHO cells, read-out: C40: EC50 for inhibition of Aβ40
[5] = electrochemiluminescent assay, hAPP-REPNL751 CHO cells, read-out: C42: EC50 for inhibition of Aβ42
[6] = CHO, reference standards of the beta amyloid assay, read-out: EC50αβ42

Structure (SMILES): CC[C@@H](C)[C@@H](COS(=O)(=O)O)NS(=O)(=O)c1ccc(Cl)s1 [Example 2, (2S,3R)-2-{[(5-chloro-2-thienyl)sulfonyl]amino}-3-methylpentyl Hydrogen Sulfate, Sodium Salt]
pEC50 [1, 4]: 4.82
pEC50 [2, 5]: 4.82

Structure (SMILES): CC[C@H](CC(F)(F)F)[C@@H](CO)NS(=O)(=O)c1ccc(Cl)s1 [5-chloro-N-[(1S,2R)-2-ethyl-4,4,4-trifluoro-1-(hydroxymethyl)butyl]thiophene-2-sulfonamide, reference compound]
pEC50 ([1]; CHO, reference standards of the beta amyloid assay, read-out: EC50αβ40): 8.22
pEC50 [2, 6]: 8.30

Structure (SMILES): O=S(=O)(O)OC[C@@H](NS(=O)(=O)c1ccc(Cl)s1)[C@@H](c1cc(F)cc(F)c1)C(F)(F)F [Example 6, (2S,3R)-2-{[(5-chloro-2-thienyl)sulfonyl]amino}-3-(3,5-difluorophenyl)-4,4,4-trifluorobutyl Hydrogen Sulfate, Sodium Salt]
pEC50 [1, 4]: 5.76
pEC50 [2, 5]: 5.89

Structure (SMILES): O=S(=O)(O)OC[C@@H](NS(=O)(=O)c1ccc(Cl)s1)C(C(F)(F)F)C(F)(F)F [Example 1, (2S)-2-{[(5-chloro-2-thienyl)sulfonyl]amino}-4,4,4-trifluoro-3-(trifluoromethyl)butyl Hydrogen Sulfate, Sodium Salt]
pEC50 [1, 4]: 6.35
pEC50 [2, 5]: 6.35

Structure (SMILES): O=S(=O)(O)OC[C@@H](NS(=O)(=O)c1ccc(Cl)cc1)C(C(F)(F)F)C(F)(F)F [Example 5]
pEC50 ([1]; CHO, read-out: C40: EC50 for inhibition of Aβ40): 5.39
pEC50 ([2]; CHO, read-out: C42: EC50 for inhibition of Aβ42): 5.38

Structure (SMILES): CC[C@H](C)[C@@H](COS(=O)(=O)O)NS(=O)(=O)c1ccc(Cl)cc1 [Example 4, (2S,3S)-2-{[(4-chlorophenyl)sulfonyl]amino}-3-methylpentyl Hydrogen Sulfate, Sodium Salt]
pEC50 [1, 4]: 4.82
pEC50 [2, 5]: 4.82

pEC50 [3]: 7.17
Structure (SMILES): CC(C)[C@H](O)C(=O)N[C@@H](C)C(=O)N[C@@H]1C(=O)N(C)CCc2ccccc21 [(2S)-2-hydroxy-3-methyl-N-((1S)-1-methyl-2-{[(1S)-3-methyl-2-oxo-2,3,4,5-tetrahydro-1H-3-benzazepin-1-yl]amino}-2-oxoethyl)butanamide, reference compound]
pEC50 [2, 6]: 7.10

Structure (SMILES): CCC(CC)[C@@H](COS(=O)(=O)O)NS(=O)(=O)c1ccc(Cl)s1 [Example 3, (2S)-2-{[(5-chloro-2-thienyl)sulfonyl]amino}-3-ethylpentyl Hydrogen Sulfate, Sodium Salt]
pEC50 [1, 4]: 6.61
pEC50 [2, 5]: 6.63
